Test results taken from US10597388B2, “Pyridazinone herbicides” (FMC CORPORATION, priority 2014, dated 2020).

Key:
Assay in all cases: Test D controlled growth environment herbicide test, pre- and postemergence
Assay type in all cases: in vivo
[1] = tested on: Russian thistle (Salsola kali)
Procedure, shortened: (§1)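 Rating is visual, 0–100 scale (100 = complete control), made against untreated plants 14–21 d after treatment in controlled growth conditions. Postemergence sprays went onto 1- to 4-leaf plants in peat medium; preemergence sprays onto silt loam after sowing; formulation included a surfactant.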

[2] = tested on: barley, spring (spring barley, Hordeum vulgare)
Procedure, shortened: as §1

[3] = tested on: bluegrass (annual bluegrass, Poa annua)
Procedure, shortened: as §1

[4] = tested on: deadnettle (henbit deadnettle, Lamium amplexicaule)
Procedure, shortened: as §1

[5] = tested on: field violet (Viola arvensis)
Procedure, shortened: as §1

[6] = tested on: foxtail, green (green foxtail, Setaria viridis)
Procedure, shortened: as §1

kochia (Kochia scoparia) = tested on: kochia (Kochia scoparia)
Procedure, shortened: as §1

[7] = tested on: mustard, wild (wild mustard, Sinapis arvensis)
Procedure, shortened: as §1

[8] = tested on: oat, wild (wild oat, Avena fatua)
Procedure, shortened: as §1

[9] = tested on: pigweed (Amaranthus retroflexus)
Procedure, shortened: as §1

[10] = tested on: wheat, spring (spring wheat, Triticum aestivum)
Procedure, shortened: as §1

[11] = tested on: wheat, winter (winter wheat, Triticum aestivum)
Procedure, shortened: as §1

[12] = tested on: windgrass (Apera spica-venti)
Procedure, shortened: as §1

[13] = Postemergence, 31 g ai/ha, scale 0 to 100 (0 no effect, 100 complete control)
[14] = Postemergence, 125 g ai/ha, visual rating on scale 0 (no effect) to 100 (complete control), 14 to 21 d
[15] = Postemergence, 250 g ai/ha, scale 0 to 100 (0 no effect, 100 complete control)
[16] = Preemergence, 62 g ai/ha, scale 0 to 100 (0 no effect, 100 complete control)
[17] = Preemergence, 125 g ai/ha, scale 0 to 100 (0 no effect, 100 complete control)
[18] = Preemergence, 250 g ai/ha, scale 0 to 100 (0 no effect, 100 complete control)
[19] = postemergence, 62 g ai/ha, scale 0 to 100, 0 no effect, 100 complete control

Compound: COC(=O)Oc1c(C)nn(C)c(=O)c1-c1c(C)sc2c(C)cc(C)cc12 [Compound 81]
- Russian Thistle plant response rating [1, 13]: 75
- Plant response rating, Russian Thistle [1, 14]: 90
- Plant response rating, Russian Thistle [1, 15]: 90
- Plant response rating (scale of 0 to 100), Russian Thistle ([1]; Preemergence, 31 g ai/ha): 0
- Plant response rating, Russian Thistle [1, 16]: 0
- Plant response rating, Russian Thistle [1, 17]: 15
- Plant response rating, Russian Thistle [1, 18]: 35
- Plant response rating, Russian Thistle [1, 19]: 85
- Barley, Spring plant response rating [2, 13]: 0
- Plant response rating, Barley, Spring [2, 14]: 0
- Plant response rating, Barley, Spring [2, 15]: 10
- Plant response rating (scale of 0 to 100), Barley, Spring ([2]; Preemergence, 31 g ai/ha): 0
- Plant response rating, Barley, Spring [2, 16]: 0
- Plant response rating, Barley, Spring [2, 17]: 0
- Plant response rating, Barley, Spring [2, 18]: 5
- Plant response rating, Barley, Spring [2, 19]: 0
- Bluegrass plant response rating [3, 13]: 5
- Plant response rating, Bluegrass [3, 14]: 30
- Plant response rating, Bluegrass [3, 15]: 40
- Plant response rating (scale of 0 to 100), Bluegrass ([3]; Preemergence, 31 g ai/ha): 0
- Plant response rating, Bluegrass [3, 16]: 10
- Plant response rating, Bluegrass [3, 17]: 20
- Plant response rating, Bluegrass [3, 18]: 60
- Plant response rating, Bluegrass [3, 19]: 20
- Deadnettle plant response rating [4, 13]: 15
- Plant response rating, Deadnettle [4, 14]: 35
- Plant response rating, Deadnettle [4, 15]: 60
- Plant response rating (scale of 0 to 100), Deadnettle ([4]; Preemergence, 31 g ai/ha): 0
- Plant response rating, Deadnettle [4, 16]: 0
- Plant response rating, Deadnettle [4, 17]: 5
- Plant response rating, Deadnettle [4, 18]: 55
- Plant response rating, Deadnettle [4, 19]: 35
- Field Violet plant response rating [5, 13]: 75
- Plant response rating, Field Violet [5, 14]: 100
- Plant response rating, Field Violet [5, 15]: 100
- Plant response rating (scale of 0 to 100), Field Violet ([5]; Preemergence, 31 g ai/ha): 75
- Plant response rating, Field Violet [5, 16]: 80
- Plant response rating, Field Violet [5, 17]: 100
- Plant response rating, Field Violet [5, 18]: 95
- Plant response rating, Field Violet [5, 19]: 85
- Foxtail, Green plant response rating [6, 13]: 80
- Plant response rating, Foxtail, Green [6, 14]: 95
- Plant response rating, Foxtail, Green [6, 15]: 100
- Plant response rating (scale of 0 to 100), Foxtail, Green ([6]; Preemergence, 31 g ai/ha): 75
- Plant response rating, Foxtail, Green [6, 16]: 65
- Plant response rating, Foxtail, Green [6, 17]: 100
- Plant response rating, Foxtail, Green [6, 18]: 100
- Plant response rating, Foxtail, Green [6, 19]: 95
- Kochia plant response rating (kochia (Kochia scoparia); [13]): 60
- Plant response rating, Kochia (kochia (Kochia scoparia); [14]): 90
- Plant response rating, Kochia (kochia (Kochia scoparia); [15]): 95
- Plant response rating (scale of 0 to 100), Kochia (kochia (Kochia scoparia); Preemergence, 31 g ai/ha): 0
- Plant response rating, Kochia (kochia (Kochia scoparia); [16]): 0
- Plant response rating, Kochia (kochia (Kochia scoparia); [17]): 25
- Plant response rating, Kochia (kochia (Kochia scoparia); [18]): 15
- Plant response rating, Kochia (kochia (Kochia scoparia); [19]): 85
- Mustard, Wild plant response rating [7, 13]: 50
- Plant response rating, Mustard, Wild [7, 14]: 60
- Plant response rating, Mustard, Wild [7, 15]: 80
- Plant response rating (scale of 0 to 100), Mustard, Wild ([7]; Preemergence, 31 g ai/ha): 0
- Plant response rating, Mustard, Wild [7, 16]: 0
- Plant response rating, Mustard, Wild [7, 17]: 0
- Plant response rating, Mustard, Wild [7, 18]: 50
- Plant response rating, Mustard, Wild [7, 19]: 60
- Oat, Wild plant response rating [8, 13]: 85
- Plant response rating, Oat, Wild [8, 14]: 95
- Plant response rating, Oat, Wild [8, 15]: 98
- Plant response rating (scale of 0 to 100), Oat, Wild ([8]; Preemergence, 31 g ai/ha): 85
- Plant response rating, Oat, Wild [8, 16]: 85
- Plant response rating, Oat, Wild [8, 17]: 85
- Plant response rating, Oat, Wild [8, 18]: 95
- Plant response rating, Oat, Wild [8, 19]: 90
- Pigweed plant response rating [9, 13]: 100
- Plant response rating, Pigweed [9, 14]: 100
- Plant response rating, Pigweed [9, 15]: 100
- Plant response rating (scale of 0 to 100), Pigweed ([9]; Preemergence, 31 g ai/ha): 95
- Plant response rating, Pigweed [9, 16]: 100
- Plant response rating, Pigweed [9, 17]: 100
- Plant response rating, Pigweed [9, 18]: 100
- Plant response rating, Pigweed [9, 19]: 100
- Wheat, Spring plant response rating [10, 13]: 0
- Plant response rating, Wheat, Spring [10, 14]: 0
- Plant response rating, Wheat, Spring [10, 15]: 20
- Plant response rating (scale of 0 to 100), Wheat, Spring ([10]; Preemergence, 31 g ai/ha): 0
- Plant response rating, Wheat, Spring [10, 16]: 0
- Plant response rating, Wheat, Spring [10, 17]: 0
- Plant response rating, Wheat, Spring [10, 18]: 40
- Plant response rating, Wheat, Spring [10, 19]: 0
- Wheat, Winter plant response rating [11, 13]: 0
- Plant response rating, Wheat, Winter [11, 14]: 5
- Plant response rating, Wheat, Winter [11, 15]: 5
- Plant response rating (scale of 0 to 100), Wheat, Winter ([11]; Preemergence, 31 g ai/ha): 0
- Plant response rating, Wheat, Winter [11, 16]: 0
- Plant response rating, Wheat, Winter [11, 17]: 5
- Plant response rating, Wheat, Winter [11, 18]: 5
- Plant response rating, Wheat, Winter [11, 19]: 0
- Windgrass plant response rating [12, 13]: 70
- Plant response rating, Windgrass [12, 14]: 90
- Plant response rating, Windgrass [12, 15]: 95
- Plant response rating (scale of 0 to 100), Windgrass ([12]; Preemergence, 31 g ai/ha): 60
- Plant response rating, Windgrass [12, 16]: 75
- Plant response rating, Windgrass [12, 17]: 90
- Plant response rating, Windgrass [12, 18]: 100
- Plant response rating, Windgrass [12, 19]: 80
